Tests used:
HeLa cells [1] = assay: MTT cell proliferation assay, HeLa cells; format: cell-based; settings: Homo sapiens, 24 h, read-out: IC50 HeLa cells (24 h)
Description: (§1) The effects of tanshinones (DS−1 to DS−5) on the proliferation of U−2 OS cells, HeLa cells, and NRK−49F cells were measured by the classical MTT method with minor modifications as follows. Cells were seeded at 5000 per well in 96-well plates, with each group being repeated in 5 wells, and were incubated for 12 h. DS−1 to DS−5 were added at gradient concentrations, then incubated for 24 and 48 h, respectively. Then, 20 μL MTT solution (solved in PBS, 5 mg/mL) was added to every well, and the cells were further incubated at 37 °C for 4 h until a purple precipitate was visible. The plate was centrifuged at 1000 rpm for 1 min; the supernatant was suctioned, and 150 μL of DMSO was added per well; the plate was shaken on a shaker protected from light for 15 min. We placed the plate in an enzyme marker and measured the absorbance values at a 490 nm wavelength.

NRK−49F cells [2] = assay: MTT cell proliferation assay, NRK−49F cells; format: cell-based, rat; settings: Rattus norvegicus, 24 h, read-out: IC50 NRK−49F cells (24 h)
Description: as §1

HeLa cells [3] = assay: Cell adhesion against trypsin digestion, HeLa cells; format: cell-based, human; settings: DS-1 10.0, 15.0, 20.0 μM for 24 h
Source text: Dihydrotanshinone I enhances cell adhesion and inhibits cell migration in osteosarcoma U-2 OS cell through CD44
Lanyan Fan1, 2, Chen Peng2, Xiaoping Zhu1, 2, Yawen Liang2, Ti anyi Xu2, Peng Xu1 and Shihua Wu1, 2* 1 Joint Research Centre for Engineering Biology, Zhejiang University-University of Edinburgh Institute, Zhejiang University, Haining 314400, China
2 Research Center of Siyuan Natural Pharmacy and Biotoxicology, College of Life Sciences, Zhejiang University, Hangzhou, Zhejiang Province 310058, China
* Correspondence: Drwushihua@zju.edu.cn, Shihuawu@intl.zju.edu.cn; Tel.: +86-13968131541 Legends for Supplementary figures
Figure S1. The chemical structures of major tanshinones isolated from Salvia miltiorrhiza rhizome.
Figure S2. The effects of DS-1 on HeLa cell adhesion on cell culture plates against trypsin digestion. (A) Hela cells were seeded at 80000 per well in 6-well plates for 12 h, then treated with 0, 10.0, 15.0, 20.0 μM DS-1 for 24 h.
After that, cells were washed by PBS solution and digested by 400 μL 0.25% trypsin. During the digestion, cellular morphology was recorded by inverted microscope with camera every 30 seconds. The digestion time […]
Figure S3. […]
cellular morphology was recorded by inverted microscope every 30 seconds. […]
Figure S4. […] The relative expression of CD44 was detected by Western Blot and […]

NRK−49F cells [4] = assay: Cell adhesion against trypsin digestion, NRK−49F cells; format: cell-based, rat; settings: DS-1 6.25, 12.5 μM for 24 h
CD44 = assay: RNA-seq transcriptome, CD44 expression; format: cell-based, human; settings: DS−1 6.25 µM, 24 h
Description: Sample preparation: U−2 OS cells were seeded in a 10 cm culture dish, and we cultured them to the logarithmic growth phase, suctioned the previous medium, and added new medium with DS−1 at 0 and 6.25 μM; each group was repeated two times. After 24 h of culture, the dish was washed with PBS reagent 3 times. One milliliter of TRIzol reagent was added to every dish for cell lysate and then collected in centrifuge tubes.
Transcriptome sequencing and analysis were carried out by Novogene Bioinformatics Technology Co., Ltd. (Beijing, China).
Raw data in the fastq format were firstly processed through in-house Perl scripts. In this step, clean data were obtained by removing reads containing adapter or containing ploy-N and low-quality reads from raw data. […]
Reference genome and gene model annotation files were downloaded from the genome website directly. The index of the reference genome was built using Hisat2 v2.0.5 (https://github.com/DaehwanKimLab/hisat2, accessed on 4 May 2022), and paired-end clean reads were aligned to the reference genome using Hisat2 v2.0.5. FeatureCounts v1.5.0-p3 (https://github.com/byee4/featureCounts, accessed on 4 May 2022) was used to count the reads numbers mapped to each gene. Then the Fragments PerKilobase of transcript sequence per Millions […] (FPKMs) of each gene were calculated based on the length of the gene and reads’ count mapped to this gene. […]

p53 = assay: Western blot p53; format: cell-based, human; settings: DS−1 2.5, 5.0, and 7.5 µM, 24 h
Description: Sample preparation: U−2 OS cells seeded in 10 cm Petri dishes were collected and washed with ice-cold PBS and RIPA lysis buffer with PMAF; phosphatase inhibitor was added, and the tubes were placed on ice for 30 min and vortexed for 30 s at intervals of 10 min. The samples were centrifuged at 12,000 g at 4 °C for 15 min, and the supernatants were collected in new centrifuge tubes. The protein samples were placed on ice, and the concentration of each protein sample was measured by the BCA kit (Thermo). The protein concentration was adjusted to the same by milli Q ultrapure water.
Loading and running the gel: Equal amounts of protein were loaded into the wells of the 10% SDS-PAGE gel, along with molecular weight markers, and 15 μg of total protein from the cell lysate was loaded. We then ran the gel for 45 min at 200 V.
Transferring the protein: We prepared the transfer stack as follows: negative plate, sponge, filter paper, gel, PVDF membrane, filter paper, sponge, and positive plate. The transfer was for 90 min at 200 mA.
Antibody staining: We blocked the membrane for 1 h at room temperature using 5% blocking solution, then incubated the membrane with appropriate dilutions of the primary antibody in the blocking solution overnight at 4 °C. […] Images were acquired using darkroom development techniques for chemiluminescence and analyzed by Image J.

For Cc1cccc2c3c(ccc12)C1=C(C(=O)C3=O)[C@@H](C)CO1 [DS−1, 15,16-Dihydrotanshinone I], the IC50 (HeLa cells [1]) was 15.5 ± 0.98 µM, the IC50 (NRK−49F cells [2]) was 25 ± 1.98 µM and the “cell adhesion against trypsin digestion on cell culture plates” value (HeLa cells [3]) was “not significant”. The “cell adhesion on the cell culture plate against trypsin digestion” value (NRK−49F cells [4]) was “stronger cell adhesion”, the “upregulation of CD44 in transcriptome” value (CD44) was 2.94 ± 0.55 fold and the “level of p53” value (p53) was “significantly increased”.
